Results on one substance are retold here after patent publication US20220196635A1, “Fibrosis Assay” (Georgia Tech Research Corporation, priority 2020, published 2022).

Test [1] concerns normal human lung fibroblasts (NHLF). The test can be described thus: mRNA quantification by qPCR in fibrin remodeling assay. The format is cell-based. Here is the method:
RNA extraction and qPCR: Cells from 12 wells at the indicated time points were pooled together per condition and lysed with 350 μl of RLT lysis buffer. RNA was extracted using a RNeasy Mini Kit (Qiagen, #74104) and was performed according to the manufacturer's instructions. RNA sample concentration was measured using a NanoDrop OneC Spectrophotometer (Thermo Fisher Scientific). A High-Capacity RNA-to-cDNA Kit (Applied Biosystems, #4387406) was used for reverse transcription; 400 ng of RNA for each sample was mixed with 10 μl primer, 1 μl reverse transcriptase enzyme and nuclease-free water to bring the final reaction volume to 20 μl. The reaction was performed for 60 minutes at 37° C., followed by 5 minutes at 95° C. using a Veriti Thermal Cycler (Applied Biosystems). qPCR was performed using a QuantStudio 3 Real-Time PCR System (Applied Biosystems). Each reaction consisted of 1 μl cDNA, 10 μl TaqMan Fast advanced master mix (Applied Biosystems, #4444556), 1 μl primer, and 6 μl nuclease-free water. TaqMan primers (Applied Biosystems) for smooth muscle actin (ACTA2, Hs00426835_g1), plasminogen activator (PLAT, Hs00263492_m1), Plasminogen activator inhibitor-1 (SERPINE1, Hs00167155_m1), collagen type I (COL1A1, Hs00164004_m1), plasminogen activator (PLAU, Hs01547054_m1), and Ki67 (MKI67, Hs01032443_m1) were utilized. The QuantStudio 3 was programmed with a 2-minute hold at 95° C., followed by 40 cycles of 95° C. for 1 second and 60° C. for 20 seconds. Each sample was run with biological triplicates. The relative gene expression was calculated using the […], with glyceraldehyde-3-phosphate dehydrogenase as the housekeeping gene (GAPDH, Hs02786624_g1). Fold changes were normalized with respect to the time zero timepoint with no TGF-β1 stimulation and are reported as the mean with the error bars representing the minimum and maximum values.

In test [2] the test system is human primary lung fibroblasts (NHLF, IPF) in fibrin micro-scaffolds. Put plainly: Contracting scar-in-a-drop fibroplasia assay (final projected area of cell-ECM spheroids). It counts as cell-based. Here is the method: Human primary lung fibroblasts were used in all experiments presented in this paper. Unless otherwise noted, experiments utilized normal human lung fibroblasts (NHLF B lot #0000580583; Lonza) from a person with a history of smoking. For experiments evaluating donor variability, the following cells were utilized: NHLF A (NHLF lot #0000608197; Lonza) from a person, IPF A (IPF lot #0000627840; Lonza) from a person, and IPF B (IPF lot #6F5002; Lonza) from a person. All cells were cultured in fibroblast growth media (FGM; Lonza). Cells were passaged at 80-90% confluence and were sub-cultured in 1:3 ratios by trypsinization. When at the desired confluence, cells were washed with PBS and 0.05% trypsin solution was added to the flask. Cells were incubated for 2 min, and then harvested and centrifuged ([…], 5 min) in a conical tube. The supernatant was aspirated and the cell pellet was re-suspended in FBS-free culture media. When used in fibrin degradation experiments, cells were re-suspended at 2× the final desired concentration (2500 cells/ul unless otherwise indicated). To promote collagen production and contraction in addition to fibrin degradation, serum (bovine or human) were added at 2% or higher up to about 10%. Higher cell densities (about 2500 cells/ul and higher up to about 10,000 cells/ul) also promote collagen production. All experiments were conducted with cells at or below passage 8 except for high passage experiments conducted at passage 12. In all experiments, media was changed every 48 hours and any media additives (plasminogen, TGF-β1, drugs, etc.,) were included.
ATPS printing of fibrin micro-scaffolds has previously described above. Briefly, working solutions of PEG with 0.1 U/mL of thrombin were warmed to 37° C. and pipetted into a 96-well plate. For production of droplets, fibrinogen-DEX solutions with cell suspension were maintained at 37° C. and 4 μl per assay (unless otherwise noted) was pipetted directly into the PEG-thrombin media using a semi-automated repeater pipette (Repeater E3X; Eppendorf). Following dispensing of the DEX phase, the plates were placed in an ambient air incubator at 37° C. for 30 min to allow the thrombin to enzymatically crosslink the fibrinogen into a fibrin matrix (FIG. 6A). The PEG-enriched media was removed using a 12-channel micropipette and replaced with 100 μl of fully supplemented media in each well. When applicable, this media addition was supplemented with stimuli as detailed in example 17 below. For the duration of each experiment, assay plates were imaged every 2 hours at 4× with an automated cell culture monitoring system (Incucyte S3; Sartorius). As the assay proceeded, the fibroblasts progressively remodeled the fibrin scaffold as illustrated in FIG. 6C.
After each experiment, the final projected areas of the cell-ECM spheroids were determined from brightfield images taken at the final time point using a benchtop imaging system (2× objective; EVOS M7000; ThermoFisher). These images were then segmented through a process of pixel classification, thresholding, and morphological filtering in order to isolate the cell-ECM construct area from the background.
Pixel classification implemented Ilastic, a freely available image classification tool developed by the European Molecular Biology Laboratory. Ilastik's pixel classification utility implements a random forest classifier for quick and robust segmentation. In order to train the classifier, 10 characteristic images were selected to include different stages of ECM remodeling. In this step, each individual pixel is assigned a probability for belonging to layers for the background or the cell-ECM construct. Ilastik enables interactive training of the random forest classifier via user annotations of the training images. […]

The mark [3] stands for this setting: TGF-β1 stimulation compared to the control time series.

For the substance “TGF-β1: Human Recombinant TGF-β1 (Peprotech), pro-fibrotic, anti-fibrinolytic stimulus”, the “COL1A1 mRNA expression” value in test [1] (TGF-β1 dose) is recorded as “dose-dependent increase in COL1A1”. In addition, in test [1] (TGF-β1 dose and time course), the “ACTA2 (aSMA) mRNA expression” value is recorded as “increased expression for the highest concentration of TGF-β1”; the “SERPENE1 (PAI-1) mRNA expression” value was “significant time-dependent and dose-dependent increases in expression”. In test [1] (setting [3]), the “tPA (PLAT) mRNA expression” value is reported as “relative downregulation” and the “uPA (PLAU) mRNA expression” value is “relative upregulation”. The “MKI67 mRNA expression (proliferation marker)” value in test [1] (higher concentrations of TGF-β1) is “significantly upregulated”. Also, in test [2] (TGF-β1 0, 0.5, 2 ng/mL, NHLF), the “projected area of the final contracted cell-ECM spheroid” value is listed as “significant dose-dependent increase”. In test [2] (TGF-β1 10 ng/mL (highest concentration)), the “contraction of cell-ECM construct” value is “did not contract within the duration of the experiment”. In test [2] (TGF-β1 stimulation, kernel density estimates (FIG. 12A)), the 50% contraction time result was “increases in both 50% contraction time and final assay area”.
